# The source made the active and inactive calls. Cut-off read from the data, not from the text of the source, for most assays here: actives have a measured EC50 and inactives only a lower limit.
# What was measured:
# Fatty acid synthase [1] = target: T1, Fatty acid synthase (Homo sapiens, UniProt P49327); experiment: FAS thioesterase domain inhibitors, dose response, biochemical, kinetic fluorescence intensity (AID 624326); format: functional;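 note: rate of fluorescence rise from hydrolysis of a fluorogenic O-methyl fluorescein ester substrate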
# T1 sequence (P49327 whole entry, the tested form may be a part): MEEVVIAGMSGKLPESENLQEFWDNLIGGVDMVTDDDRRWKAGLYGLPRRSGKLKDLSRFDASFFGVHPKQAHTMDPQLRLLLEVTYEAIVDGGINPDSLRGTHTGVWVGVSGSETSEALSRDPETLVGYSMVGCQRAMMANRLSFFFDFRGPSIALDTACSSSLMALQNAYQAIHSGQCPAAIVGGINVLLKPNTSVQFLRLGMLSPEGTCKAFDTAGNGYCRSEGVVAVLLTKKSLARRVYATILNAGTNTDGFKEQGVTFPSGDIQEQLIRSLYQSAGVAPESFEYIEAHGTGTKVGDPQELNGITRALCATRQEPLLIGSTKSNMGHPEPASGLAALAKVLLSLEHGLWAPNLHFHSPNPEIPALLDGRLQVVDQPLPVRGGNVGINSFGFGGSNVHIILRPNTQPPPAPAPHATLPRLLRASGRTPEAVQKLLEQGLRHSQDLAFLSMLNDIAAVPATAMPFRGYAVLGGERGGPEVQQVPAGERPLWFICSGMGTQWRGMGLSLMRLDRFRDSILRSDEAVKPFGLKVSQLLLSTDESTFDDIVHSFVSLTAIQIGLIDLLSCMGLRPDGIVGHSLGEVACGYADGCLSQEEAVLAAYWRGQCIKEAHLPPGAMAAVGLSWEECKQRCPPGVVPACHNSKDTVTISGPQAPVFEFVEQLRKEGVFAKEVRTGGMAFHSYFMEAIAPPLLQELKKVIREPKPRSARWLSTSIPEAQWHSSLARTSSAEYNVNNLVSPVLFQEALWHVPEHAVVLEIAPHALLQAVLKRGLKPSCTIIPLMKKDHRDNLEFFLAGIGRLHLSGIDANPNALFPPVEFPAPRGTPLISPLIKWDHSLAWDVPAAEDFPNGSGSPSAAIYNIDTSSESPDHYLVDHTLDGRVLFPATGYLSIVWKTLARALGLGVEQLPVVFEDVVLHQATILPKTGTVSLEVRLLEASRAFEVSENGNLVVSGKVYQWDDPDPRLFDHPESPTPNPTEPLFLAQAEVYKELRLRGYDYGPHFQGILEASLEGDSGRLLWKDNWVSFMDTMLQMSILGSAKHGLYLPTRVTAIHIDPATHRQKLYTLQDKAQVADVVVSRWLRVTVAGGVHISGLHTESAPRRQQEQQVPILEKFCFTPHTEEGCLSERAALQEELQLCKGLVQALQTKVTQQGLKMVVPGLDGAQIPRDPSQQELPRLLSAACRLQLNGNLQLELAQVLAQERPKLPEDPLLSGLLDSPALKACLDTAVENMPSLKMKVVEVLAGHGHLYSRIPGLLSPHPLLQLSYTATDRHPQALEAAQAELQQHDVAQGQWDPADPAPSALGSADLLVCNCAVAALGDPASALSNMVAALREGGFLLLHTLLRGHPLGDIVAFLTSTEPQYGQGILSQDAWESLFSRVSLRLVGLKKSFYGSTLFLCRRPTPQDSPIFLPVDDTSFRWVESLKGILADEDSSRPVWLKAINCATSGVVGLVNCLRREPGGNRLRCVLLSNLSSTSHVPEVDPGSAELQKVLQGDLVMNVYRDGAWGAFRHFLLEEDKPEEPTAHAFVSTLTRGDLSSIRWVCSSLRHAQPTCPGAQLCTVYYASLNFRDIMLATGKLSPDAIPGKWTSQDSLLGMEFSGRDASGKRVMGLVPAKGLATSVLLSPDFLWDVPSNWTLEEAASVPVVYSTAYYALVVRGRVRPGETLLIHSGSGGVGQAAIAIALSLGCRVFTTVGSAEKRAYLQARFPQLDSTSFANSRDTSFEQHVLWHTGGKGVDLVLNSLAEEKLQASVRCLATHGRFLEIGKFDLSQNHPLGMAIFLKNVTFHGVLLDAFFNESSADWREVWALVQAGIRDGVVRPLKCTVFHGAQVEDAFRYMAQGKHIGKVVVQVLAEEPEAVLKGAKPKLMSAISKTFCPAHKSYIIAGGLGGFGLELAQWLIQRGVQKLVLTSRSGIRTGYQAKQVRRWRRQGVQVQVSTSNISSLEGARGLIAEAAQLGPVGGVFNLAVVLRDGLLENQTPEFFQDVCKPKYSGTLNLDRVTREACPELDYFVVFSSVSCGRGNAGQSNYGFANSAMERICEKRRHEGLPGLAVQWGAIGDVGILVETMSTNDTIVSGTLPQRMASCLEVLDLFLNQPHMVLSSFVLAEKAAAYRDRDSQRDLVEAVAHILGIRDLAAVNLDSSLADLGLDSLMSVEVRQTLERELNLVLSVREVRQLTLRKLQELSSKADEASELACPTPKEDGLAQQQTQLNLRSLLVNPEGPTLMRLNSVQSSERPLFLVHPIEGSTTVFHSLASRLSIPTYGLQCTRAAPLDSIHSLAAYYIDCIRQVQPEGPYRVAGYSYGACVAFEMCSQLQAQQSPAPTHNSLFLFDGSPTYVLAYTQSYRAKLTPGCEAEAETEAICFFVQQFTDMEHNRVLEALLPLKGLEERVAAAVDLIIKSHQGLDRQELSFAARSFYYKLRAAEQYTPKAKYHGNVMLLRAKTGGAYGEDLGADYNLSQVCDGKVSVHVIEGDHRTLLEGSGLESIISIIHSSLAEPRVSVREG
# Fatty acid synthase [2] = target: T1, Fatty acid synthase; experiment: FAS thioesterase domain inhibitors, dose response, biochemical, endpoint fluorescence intensity, uHTS hits (AID 624327); format: functional;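 note: fluorescence from hydrolysis of an O-methyl fluorescein acyl ester substrate by the enzyme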
# [3] = target: FAD-linked sulfhydryl oxidase ALR (Homo sapiens, UniProt P55789); experiment: inhibitors of human ALR sulfhydryl oxidase, dose response, biochemical, H2O2 detection, luminescence, cherry-pick (AID 493248)
# Sequence of FAD-linked sulfhydryl oxidase ALR (P55789 whole entry): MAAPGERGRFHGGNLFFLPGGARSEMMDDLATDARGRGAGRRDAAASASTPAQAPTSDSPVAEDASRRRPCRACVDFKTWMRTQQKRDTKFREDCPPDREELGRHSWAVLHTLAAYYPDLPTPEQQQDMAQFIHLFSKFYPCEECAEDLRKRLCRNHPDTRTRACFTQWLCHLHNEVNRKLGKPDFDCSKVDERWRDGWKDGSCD
# BJ [4] = experiment: cells; format: functional, cell-based; conditions: Homo sapiens
# BJ [5] = experiment: cytotoxicity toward BJ-TERT fibroblasts, dose response, cell-based, RAS-independent, luminescence (AID 1933); format: functional; conditions: Homo sapiens
# [6] = cytotoxicity toward DRD oncogenic fibroblasts, dose response, cell-based, non-viral oncogenic, luminescence (AID 1934); format: functional; conditions: Homo sapiens
# BJ [7] = experiment: cytotoxicity toward BJ-TERT-LT-ST fibroblasts, dose response, cell-based, RAS-independent, luminescence (AID 1935); format: functional; conditions: Homo sapiens;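 note: BJ fibroblasts immortalized with TERT plus LT and ST oncogenes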
# [8] = NIH-3T3 fibroblast cytotoxicity, dose response, cytotoxicity control, cell-based, fluorescence, Alamar Blue, secondary assay (AID 2327); format: functional;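 note: NIH-3T3 mouse fibroblasts cultured with fluconazole at 8 µg/mL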
# [9] = Luminescence Cell-Based Dose Confirmation HTS to Identify Activators of 5'UTR Stem-Loop Driven Alpha-Synuclein mRNA Translation in H4 Neuroglioblastoma Cells. [Related pubchem assays: 1829 (Project Summary), 1814 (Primary HTS)]; format: functional
# H4 = experiment: Luminescence Cell-Based Dose Response HTS to Identify Activators of 5'UTR Stem-Loop Driven Prion Protein mRNA Translation in H4 Neuroglioblastoma Cells. [Related pubchem assays: 1829 (Project Summary), 1814 (Primary HTS)]; format: functional; conditions: Homo sapiens
# [10] = Luminescence Cell-Based Dose Response HTS to Identify Activators of Luciferase Translation or Activity in H4 […] Cells. [Related pubchem assays: 1829 (Project Summary), 1814 (Primary HTS)]; format: functional
# [11] = target: Luciferin 4-monooxygenase (Photinus pyralis, UniProt P08659); experiment: firefly luciferase enzyme inhibitors, dose response, biochemical, luminescence (AID 1891)
# Sequence of Luciferin 4-monooxygenase (P08659 whole entry): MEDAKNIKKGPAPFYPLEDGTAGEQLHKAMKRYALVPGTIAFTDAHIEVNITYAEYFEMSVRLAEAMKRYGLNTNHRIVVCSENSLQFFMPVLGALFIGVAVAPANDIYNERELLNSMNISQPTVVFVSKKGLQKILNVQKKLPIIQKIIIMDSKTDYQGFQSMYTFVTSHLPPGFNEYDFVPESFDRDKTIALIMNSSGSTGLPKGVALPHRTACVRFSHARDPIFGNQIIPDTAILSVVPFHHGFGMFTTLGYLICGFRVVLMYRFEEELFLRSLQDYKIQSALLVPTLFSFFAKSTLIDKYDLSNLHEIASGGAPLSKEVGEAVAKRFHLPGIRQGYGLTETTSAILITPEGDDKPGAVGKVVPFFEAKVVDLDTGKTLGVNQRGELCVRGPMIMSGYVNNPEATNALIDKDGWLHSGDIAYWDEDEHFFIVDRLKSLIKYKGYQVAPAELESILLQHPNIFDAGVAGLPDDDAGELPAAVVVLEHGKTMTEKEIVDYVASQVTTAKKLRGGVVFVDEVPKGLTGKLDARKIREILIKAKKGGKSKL
# [12] = Luminescence Cell-Based Dose Confirmation HTS to Identify Inhibitors of Platelet Dense Granule Release. [Related pubchem assays: 1663 (Primary HTS), 1678 (Summary of Project)]; format: functional
# [13] = target: Heat shock protein HSP 90-alpha (Homo sapiens, UniProt P07900); format: functional, organism-based
smiles,measurement,setting,value
O=S(=O)(Nc1ccc2c(c1)OCCO2)c1ccc2oc3ccccc3c2c1,IC50,Fatty acid synthase [1],7.42 µM (active)
same,IC50,Fatty acid synthase [2],8 µM (active)
Nc1ccc(CCc2ccc(N)cc2)cc1,AC50,[3],1.91 µM (active)
O=C1C2CCN(CC2)C1Cc1ccc(OCCOc2ccccc2)cc1 (configuration not stated),EC50,BJ [4],> 150 µM (not active)
same,EC50,BJ [5],> 150 µM (not active)
same,EC50,[6],> 150 µM (not active)
same,EC50,BJ [7],> 150 µM (not active)
same,EC50,[8],30.6 µM (active)
CCN(CC)c1ccc(NC(=O)c2nc3nc(C)cc(C(F)F)n3n2)cc1,AC50,[3],1.51 µM (active)
O=C(Cn1cc([N+](=O)[O-])cn1)N1CCc2ccccc2C1,IC50,Fatty acid synthase [1],7.62 µM (active)
same,IC50,Fatty acid synthase [2],11.1 µM (active)
CCN(CC)c1ccc(NC(=O)C2CCCN(S(=O)(=O)c3cccnc3)C2)c(C)c1 (configuration not stated),AC50,[3],2.3 µM (active)
CCOC(=O)c1ccc(Nc2nnc(C)c3ccccc23)cc1,EC50,[9],14.4 µM (active)
same,EC50,H4,16.9 µM (active)
same,EC50,[10],18.6 µM (active)
COc1cccc(C(c2sc3ncnn3c2O)N2CCN(C(=O)c3ccco3)CC2)c1 (configuration not stated),EC50,[11],> 112 µM (not active)
same,EC50,[12],> 112 µM (not active)
O=C(NCCC(=O)N(CCc1ccccc1)Cc1ccccc1)c1ccc([N+](=O)[O-])cc1,IC50,Fatty acid synthase [1],8.92 µM (active)
same,IC50,Fatty acid synthase [2],8.21 µM (active)
CC1CC(Nc2ccccc2)c2ccccc2N1C(=O)c1ccco1 (configuration not stated),AC50,[3],21.1 µM (active)
Cc1cc(/C=C2\SC(N)=NC2=O)c(C)n1-c1ccccc1,EC50,[9],0.167 µM (active)
same,EC50,H4,> 120 µM (not active)
same,EC50,[10],0.143 µM (active)
COc1cccc(C(=O)Nc2ccccc2N2CCCC2)c1,AC50,[3],1.54 µM (active)
COc1ccc([N+](=O)[O-])cc1NC(=O)COC(=O)/C=C/c1ccco1,IC50,Fatty acid synthase [1],8.49 µM (active)
same,IC50,Fatty acid synthase [2],5.11 µM (active)
c1ccc(CSc2nnc(Cc3ccccc3)o2)cc1,EC50,[9],14.4 µM (active)
same,EC50,H4,> 120 µM (not active)
same,EC50,[10],16.8 µM (active)
O=C(COC(=O)c1cc([N+](=O)[O-])ccc1N1CCOCC1)Nc1ccccc1OC(F)F,IC50,Fatty acid synthase [1],5.1 µM (active)
same,IC50,Fatty acid synthase [2],4.73 µM (active)
O=C(Nc1ccccc1)c1cccc(N2CCCC2=O)c1,EC50,[11],> 112 µM (not active)
same,EC50,[12],45.5 µM (active)
COc1cccc(NC(=O)c2ccc3c(c2)OCCO3)c1,EC50,[11],4.7 µM (active)
same,EC50,BJ [4],18.2 µM (active)
same,EC50,BJ [5],20.9 µM (active)
same,EC50,[12],3.52 µM (active)
same,EC50,[6],15.7 µM (active)
same,EC50,BJ [7],> 150 µM (inconclusive)
O=S(=O)(c1ccc(-c2csc(-c3cccnc3)n2)cc1)N1CCOCC1,IC50,Fatty acid synthase [1],4.92 µM (active)
COc1ccc(N2CCN(C(CNS(C)(=O)=O)c3ccco3)CC2)cc1 (configuration not stated),AC50,[3],4.67 µM (active)
Cc1nn(-c2ccc([N+](=O)[O-])cc2)c(O)c1/C=N/CCN1CCN(C(=O)c2ccccc2F)CC1,AC50,[13],5.72 µM (active)
